Reference: the CheMixHub viscosity set
± gives the uncertainty stated by the source.

Test: xn = mol fraction of the nth substance listed

ClC(Cl)Cl + c1ccccc1
Details | viscosity [mPa·s]
293.15 K, 101 kPa, x1 = 0.101 | 0.627 ± 0.013
293.15 K, 101 kPa, x1 = 0.245 | 0.606 ± 0.012
293.15 K, 101 kPa, x1 = 0.433 | 0.593 ± 0.012
293.15 K, 101 kPa, x1 = 0.653 | 0.582 ± 0.012
298 K, 101 kPa, x2 = 0.1452 | 0.5431 ± 0.0079
298 K, 101 kPa, x2 = 0.2124 | 0.5457 ± 0.0079
298 K, 101 kPa, x2 = 0.2765 | 0.5478 ± 0.008
298 K, 101 kPa, x2 = 0.3958 | 0.5532 ± 0.008
298 K, 101 kPa, x2 = 0.5047 | 0.559 ± 0.0081
298 K, 101 kPa, x2 = 0.5556 | 0.562 ± 0.0081
298 K, 101 kPa, x2 = 0.6045 | 0.566 ± 0.0082
298 K, 101 kPa, x2 = 0.6513 | 0.5702 ± 0.0082
298 K, 101 kPa, x2 = 0.6963 | 0.5751 ± 0.0083
298 K, 101 kPa, x2 = 0.781 | 0.5844 ± 0.0084
298 K, 101 kPa, x2 = 0.8594 | 0.5943 ± 0.0085
298 K, 101 kPa, x2 = 0.8965 | 0.6002 ± 0.0086
298 K, 101 kPa, x2 = 0.9322 | 0.6044 ± 0.0086
298.15 K, 101 kPa, x1 = 0.0974 | 0.587 ± 0.016
298.15 K, 101 kPa, x1 = 0.1964 | 0.581 ± 0.015
298.15 K, 101 kPa, x1 = 0.2012 | 0.5935 ± 0.0075
298.15 K, 101 kPa, x1 = 0.3014 | 0.5886 ± 0.0074
298.15 K, 101 kPa, x1 = 0.3582 | 0.5866 ± 0.0074
298.15 K, 101 kPa, x1 = 0.4568 | 0.5805 ± 0.0073
298.15 K, 101 kPa, x1 = 0.4857 | 0.5773 ± 0.0073
298.15 K, 101 kPa, x1 = 0.6022 | 0.57 ± 0.0072
298.15 K, 101 kPa, x1 = 0.6861 | 0.557 ± 0.015
298.15 K, 101 kPa, x1 = 0.7542 | 0.5603 ± 0.0071
298.15 K, 101 kPa, x1 = 0.8971 | 0.546 ± 0.015
298.15 K, 101 kPa, x2 = 0.1029 | 0.546 ± 0.007
298.15 K, 101 kPa, x2 = 0.1297 | 0.5454 ± 0.0056
298.15 K, 101 kPa, x2 = 0.2 | 0.525 ± 0.0053
298.15 K, 101 kPa, x2 = 0.2983 | 0.5512 ± 0.0056
298.15 K, 101 kPa, x2 = 0.3141 | 0.557 ± 0.007
298.15 K, 101 kPa, x2 = 0.3724 | 0.5535 ± 0.0056
298.15 K, 101 kPa, x2 = 0.4 | 0.541 ± 0.0055
298.15 K, 101 kPa, x2 = 0.4086 | 0.5544 ± 0.0056
298.15 K, 101 kPa, x2 = 0.49 | 0.558 ± 0.0057
298.15 K, 101 kPa, x2 = 0.5395 | 0.5613 ± 0.0057
298.15 K, 101 kPa, x2 = 0.6 | 0.555 ± 0.0056
298.15 K, 101 kPa, x2 = 0.6023 | 0.5633 ± 0.0057
298.15 K, 101 kPa, x2 = 0.6707 | 0.5656 ± 0.0057
298.15 K, 101 kPa, x2 = 0.6862 | 0.5668 ± 0.0057
298.15 K, 101 kPa, x2 = 0.7414 | 0.5709 ± 0.0058
298.15 K, 101 kPa, x2 = 0.8 | 0.574 ± 0.0059
298.15 K, 101 kPa, x2 = 0.8037 | 0.581 ± 0.008
298.15 K, 101 kPa, x2 = 0.8801 | 0.5866 ± 0.0059
298.15 K, 101 kPa, x2 = 0.9029 | 0.587 ± 0.008
298.15 K, 101 kPa, x2 = 0.9214 | 0.589 ± 0.0059
298.15 K, 101 kPa, x2 = 0.962 | 0.5949 ± 0.006
298.15 K, 101.33 kPa, x1 = 0.0672 | 0.5938 ± 0.0059
298.15 K, 101.33 kPa, x1 = 0.1508 | 0.5847 ± 0.0059
298.15 K, 101.33 kPa, x1 = 0.2151 | 0.5795 ± 0.0058
298.15 K, 101.33 kPa, x1 = 0.3057 | 0.5722 ± 0.0058
298.15 K, 101.33 kPa, x1 = 0.5108 | 0.5613 ± 0.0057
298.15 K, 101.33 kPa, x1 = 0.6489 | 0.559 ± 0.0056
298.15 K, 101.33 kPa, x1 = 0.8164 | 0.5493 ± 0.0056
298.15 K, 101.33 kPa, x1 = 0.9301 | 0.5403 ± 0.0055
303.15 K, 101 kPa, x1 = 0.101 | 0.548 ± 0.011
303.15 K, 101 kPa, x1 = 0.245 | 0.533 ± 0.011
303.15 K, 101 kPa, x1 = 0.433 | 0.527 ± 0.011
303.15 K, 101 kPa, x1 = 0.653 | 0.52 ± 0.011
308 K, 101 kPa, x2 = 0.1452 | 0.4917 ± 0.0073
308 K, 101 kPa, x2 = 0.2124 | 0.4939 ± 0.0073
308 K, 101 kPa, x2 = 0.2765 | 0.4958 ± 0.0073
308 K, 101 kPa, x2 = 0.3958 | 0.5001 ± 0.0074
308 K, 101 kPa, x2 = 0.5047 | 0.5049 ± 0.0075
308 K, 101 kPa, x2 = 0.5556 | 0.5077 ± 0.0075
308 K, 101 kPa, x2 = 0.6045 | 0.5108 ± 0.0075
308 K, 101 kPa, x2 = 0.6513 | 0.5136 ± 0.0075
308 K, 101 kPa, x2 = 0.6963 | 0.5168 ± 0.0076
308 K, 101 kPa, x2 = 0.781 | 0.5225 ± 0.0077
308 K, 101 kPa, x2 = 0.8594 | 0.5282 ± 0.0077
308 K, 101 kPa, x2 = 0.8965 | 0.5311 ± 0.0078
308 K, 101 kPa, x2 = 0.9322 | 0.5336 ± 0.0078
313.15 K, 101 kPa, x1 = 0.101 | 0.483 ± 0.01
313.15 K, 101 kPa, x1 = 0.245 | 0.473 ± 0.01
313.15 K, 101 kPa, x1 = 0.433 | 0.47 ± 0.01
313.15 K, 101 kPa, x1 = 0.653 | 0.471 ± 0.01
318 K, 101 kPa, x2 = 0.1452 | 0.451 ± 0.0068
318 K, 101 kPa, x2 = 0.2124 | 0.452 ± 0.0068
318 K, 101 kPa, x2 = 0.2765 | 0.4532 ± 0.0068
318 K, 101 kPa, x2 = 0.3958 | 0.4558 ± 0.0069
318 K, 101 kPa, x2 = 0.5047 | 0.4587 ± 0.0069
318 K, 101 kPa, x2 = 0.5556 | 0.4602 ± 0.0069
318 K, 101 kPa, x2 = 0.6045 | 0.4618 ± 0.0069
318 K, 101 kPa, x2 = 0.6513 | 0.4635 ± 0.007
318 K, 101 kPa, x2 = 0.6963 | 0.4652 ± 0.007
318 K, 101 kPa, x2 = 0.781 | 0.4685 ± 0.007
318 K, 101 kPa, x2 = 0.8594 | 0.472 ± 0.0071
318 K, 101 kPa, x2 = 0.8965 | 0.4738 ± 0.0071
318 K, 101 kPa, x2 = 0.9322 | 0.4755 ± 0.0071
323.15 K, 101 kPa, x1 = 0.101 | 0.431 ± 0.009
323.15 K, 101 kPa, x1 = 0.245 | 0.426 ± 0.009
323.15 K, 101 kPa, x1 = 0.433 | 0.43 ± 0.009

CCCCCCCCCC(=O)OC + CCCCO
viscosity [mPa·s], 100 kPa
Details | 293.15 K | 298.15 K | 303.15 K | 308.15 K | 313.15 K | 318.15 K | 323.15 K
x1 = 0.09981 | 2.423 ± 0.052 | 2.148 ± 0.046 | 1.914 ± 0.041 | 1.709 ± 0.036 | 1.538 ± 0.033 | 1.386 ± 0.029 | 1.254 ± 0.027
x1 = 0.1 | – | 2.153 ± 0.13 | 1.921 ± 0.12 | 1.715 ± 0.1 | 1.537 ± 0.093 | 1.384 ± 0.084 | –
x1 = 0.2 | – | 1.948 ± 0.12 | 1.745 ± 0.11 | 1.569 ± 0.095 | 1.419 ± 0.086 | – | –
x1 = 0.2003 | 2.159 ± 0.046 | 1.939 ± 0.041 | 1.74 ± 0.037 | 1.566 ± 0.033 | 1.418 ± 0.03 | 1.287 ± 0.027 | 1.173 ± 0.025
x1 = 0.3 | – | 1.841 ± 0.11 | 1.656 ± 0.1 | 1.504 ± 0.091 | 1.359 ± 0.082 | – | –
x1 = 0.3001 | 2.041 ± 0.043 | 1.827 ± 0.039 | 1.646 ± 0.035 | 1.489 ± 0.032 | 1.353 ± 0.029 | 1.235 ± 0.026 | 1.13 ± 0.024
x1 = 0.3993 | 1.973 ± 0.042 | 1.773 ± 0.038 | 1.602 ± 0.034 | 1.454 ± 0.031 | 1.326 ± 0.028 | 1.214 ± 0.026 | 1.116 ± 0.024
x1 = 0.4 | – | 1.794 ± 0.11 | 1.616 ± 0.098 | 1.464 ± 0.088 | 1.333 ± 0.08 | – | –
x1 = 0.5 | – | 1.765 ± 0.11 | 1.597 ± 0.096 | 1.452 ± 0.088 | 1.332 ± 0.08 | – | –
x1 = 0.501 | 1.95 ± 0.042 | 1.755 ± 0.037 | 1.59 ± 0.034 | 1.446 ± 0.031 | 1.322 ± 0.028 | 1.213 ± 0.026 | 1.117 ± 0.024
x1 = 0.6001 | – | 1.77 ± 0.11 | 1.6 ± 0.097 | 1.458 ± 0.088 | 1.331 ± 0.08 | – | –
x1 = 0.6002 | 1.944 ± 0.042 | 1.751 ± 0.037 | 1.589 ± 0.034 | 1.448 ± 0.031 | 1.325 ± 0.028 | 1.218 ± 0.026 | 1.124 ± 0.024
x1 = 0.6999 | – | 1.779 ± 0.11 | 1.613 ± 0.097 | 1.471 ± 0.089 | 1.347 ± 0.081 | – | –
x1 = 0.7028 | 1.958 ± 0.042 | 1.767 ± 0.038 | 1.603 ± 0.034 | 1.463 ± 0.031 | 1.341 ± 0.029 | 1.234 ± 0.026 | 1.14 ± 0.024
x1 = 0.7953 | 1.986 ± 0.043 | 1.793 ± 0.038 | 1.629 ± 0.035 | 1.487 ± 0.032 | 1.364 ± 0.029 | 1.257 ± 0.027 | 1.163 ± 0.025
x1 = 0.7987 | – | 1.808 ± 0.11 | 1.646 ± 0.099 | 1.497 ± 0.09 | 1.372 ± 0.083 | – | –
x1 = 0.8967 | – | 1.846 ± 0.11 | 1.678 ± 0.1 | 1.532 ± 0.093 | 1.407 ± 0.085 | – | –
x1 = 0.8999 | 2.03 ± 0.044 | 1.835 ± 0.039 | 1.668 ± 0.036 | 1.524 ± 0.033 | 1.399 ± 0.03 | 1.29 ± 0.028 | 1.194 ± 0.026
